From patent US20050187240A1, “Aaptamine and isoaaptamine and structural modifications thereof” (The Arizona Board of Regents, Acting for and on behalf of …, priority 2004, published 2005)
In brackets after ≈: the same amount, converted by molar mass. Where a name gives a salt, the structure may show the parent alone. Read-outs that look alike come from different tables or passages of the source.

Experiments:
[1] = test system: murine P388 lymphocytic leukemia cell line; experiment: Cancer cell growth inhibition, murine P388 lymphocytic leukemia cell line; assay type: cell-based; conditions: for P388 ED50: murine P388; for IC50: Mus musculus
Source text: (§1) Evaluation of demethyloxyaaptamine (3), aaptamine (1), isoaaptamine (2) and hystatin 1 (11) against the Arizona State University Cancer Research Institute's human tumor cell line panel (Table 1) and the NCI 60-cell line human tumor screen were undertaken. (Boyd, M. R., Cancer: Principles and Practices of Oncology Updates; DeVita, et al., Eds; Lippincott: Philadelphia, 1989, Vol. 10, No. 3, pp. 1-12; Boyd, et al., Drug Development Research 1995, 34, 91-109; Boyd, M. R., et al. Cytotoxic Anticancer Drugs: Models and Concepts for Drug Discovery and Development; Valeriote, A., et al., Eds, Kluwer Academic Publishers: Amsterdam, 1992, pp. 11-34.)
(§2) Biology The cancer cell growth inhibitory properties were examined using the murine P388 lymphocytic leukemia cell line and a selection of human cancer cell lines.
(§3) All of the synthetic products were evaluated against a minipanel of human cancer cell lines, the murine P388 lymphocytic leukemia cell line and a selection of microorganisms.

Enterobacter cloacae = experiment: Broth microdilution susceptibility assay, Enterobacter cloacae; assay type: cell-based; conditions: Table 4, read-out: Range of minimum inhibitory concentration
Micrococcus luteus = experiment: Broth microdilution susceptibility assay, Micrococcus luteus; assay type: cell-based; conditions: for MIC: Table 4, read-out: Range of minimum inhibitory concentration
pancreas BXPC-3 = experiment: Cancer cell growth inhibition, pancreas BXPC-3; assay type: cell-based, human; conditions: Homo sapiens, pancreas BXPC-3
Experimental: as §2, §3

prostrate DU-145 = experiment: Cancer cell growth inhibition, prostate DU-145; assay type: cell-based, human; conditions: Homo sapiens
Experimental: as §2, §3

breast MCF-7 = experiment: Cancer cell growth inhibition, breast MCF-7; assay type: cell-based, human; conditions: Homo sapiens, MCF7, breast MCF-7
Experimental: as §2, §3

Enterococcus faecalis = experiment: Broth microdilution susceptibility assay, Enterococcus faecalis; assay type: cell-based; conditions: Table 4, read-out: Range of minimum inhibitory concentration
Escherichia coli = experiment: Broth microdilution susceptibility assay, Escherichia coli; assay type: cell-based; conditions: for MIC: Table 4, read-out: Range of minimum inhibitory concentration
Streptococcus pneumoniae = experiment: Broth microdilution susceptibility assay, Streptococcus pneumoniae; assay type: cell-based; conditions: for MIC: Table 4, read-out: Range of minimum inhibitory concentration
Cryptococcus neoformans = experiment: Broth microdilution susceptibility assay, Cryptococcus neoformans; assay type: cell-based; conditions: for MIC: Table 4, read-out: Range of minimum inhibitory concentration
Staphylococcus aureus = experiment: Broth microdilution susceptibility assay, Staphylococcus aureus; assay type: cell-based; conditions: for MIC: Table 4, read-out: Range of minimum inhibitory concentration
[2] = test system: Stenotrophomonas maltophilia; experiment: Broth microdilution susceptibility assay, Stenotrophomonas maltophilia; assay type: cell-based; conditions: for MIC: Table 4, Stenotrophomonas maltophil, read-out: Range of minimum inhibitory concentration
Candida albicans = experiment: Broth microdilution susceptibility assay, Candida albicans; assay type: cell-based; conditions: for MIC: Table 4, read-out: Range of minimum inhibitory concentration
Neisseria gonorrhoeae = experiment: Broth microdilution susceptibility assay, Neisseria gonorrhoeae; assay type: cell-based; conditions: for MIC: Table 4, read-out: Range of minimum inhibitory concentration
colon KM 20L2 = experiment: Cancer cell growth inhibition, colon KM 20L2; assay type: cell-based, human; conditions: Homo sapiens, colon KM 20L2
Source text: as §1, §2, §3

lung NCI-H460 = experiment: Cancer cell growth inhibition, lung NCI-H460; assay type: cell-based, human; conditions: Homo sapiens, lung NCI-H460
Source text: as §1, §2, §3

CNS SF-268 = experiment: Cancer cell growth inhibition, CNS SF-268; assay type: cell-based, human; conditions: Homo sapiens, CNS SF-268
Experimental: as §2, §3

PKC alpha = PKC alpha (Homo sapiens, UniProt P17252); experiment: Inhibition of PKC catalytic activity (peptide substrate phosphorylation); assay type: biochemical; conditions: 30 μM compound; 1 μM phorbol 12-myristate 13-acetate, 100 μg/ml phospholipid; mean±SEM, three experiments; read-out: percent inhibition of PKC catalytic activity
Source text: We further evaluated the ability of the derivatives to inhibit PKC catalytic activity. […] Inhibition by 10c was 19.5±7.6% and inhibition by 4, 5, and 9a, b, c was 6% or less (all values are mean±SEM, three experiments). […] In both cases, the inhibition curves were steeper than predicted for a competitive inhibitor, consistent with a complicated mechanism of action (Hill coefficients for 10a and 10b of 1.5±0.1 and 2.0±0.5, respectively).

[3] = Table 3, read-out: Cancer cell growth inhibitory ED50
[4] = Table 3, prostrate DU-145, read-out: Cancer cell growth inhibitory ED50
[5] = P388, Table 3, leukemia P-388, read-out: Cancer cell growth inhibitory ED50
[6] = Table 5, read-out: Cancer Cell Line Results ED50
[7] = DU-145, Table 5, prostate DRU-145, read-out: Cancer Cell Line Results ED50
[8] = Table 5, leukemia P388, read-out: Cancer Cell Line Results ED50

SMILES | melting point | P388 ED50 [1] | MIC (Enterobacter cloacae) | MIC (Micrococcus luteus) | IC50 (pancreas BXPC-3; [3]) | IC50 (prostrate DU-145; [4]) | IC50 (breast MCF-7; [3]) | MIC (Enterococcus faecalis) | IC50 [1, 5] | MIC (Escherichia coli) | MIC (Streptococcus pneumoniae) | MIC (Cryptococcus neoformans) | MIC (Staphylococcus aureus) | MIC [2] | MIC (Candida albicans) | MIC (Neisseria gonorrhoeae) | IC50 (colon KM 20L2; [3]) | IC50 (lung NCI-H460; [3]) | IC50 (CNS SF-268; [3]) | IC50 (pancreas BXPC-3; [6]) | other results
Oc1cc2ccnc3c2c(c1O)NC=C3 (as salt: hydrobromid) [Compound 15, 8,9-Dihydroxy-1H-Benzo[de][1,6]naphthyridine hydrobromide] | 245 to 248 °C (dec.) | – | – | – | – | – | – | – | – | – | – | – | – | – | – | – | – | – | – | – | –
COC1=Cc2ccnc3ccnc(c23)C1(OC)OC [Compound 12] | – | 59 µg/mL | – | – | – | – | – | – | – | – | – | – | – | – | – | – | – | – | – | – | –
COc1cc2c3c(ccnc3c1O)N(C)C=C2 [Compound 8, 4-Methyl-8-methoxy-9-hydroxy-4H-benzo[de][1,6]naphthyridine] | – | – | > 64 µg/mL | > 64 µg/mL | > 10 µg/mL | > 10 µg/mL | > 10 µg/mL | > 64 µg/mL | > 10 µg/mL | > 64 µg/mL | > 64 µg/mL | > 64 µg/mL | > 64 µg/mL | > 64 µg/mL | > 64 µg/mL | 4 µg/mL (≈ 17.5 µM) | > 10 µg/mL | > 10 µg/mL | > 10 µg/mL | – | –
COc1cc(CN2C=Cc3cc(OC)c(OC)c4nccc2c34)cc(OC)c1OC.Cl [Compound 9c, 8,9-Dimethoxy-4-(3,4,5-trimethoxybenzyl)-4H-benzo[de][1,6]naphthyridine hydrochloride] | 198 to 200 °C (dec.) | – | – | – | – | – | – | – | – | – | – | – | – | – | – | – | – | – | – | > 10 µg/mL | Range of minimum inhibitory concentration (Micrococcus luteus; Table 6): * (no inhibition at 64 μg/mL); IC50 (prostrate DU-145; [7]): > 10 µg/mL; IC50 (breast MCF-7; [6]): > 10 µg/mL; IC50 [1, 8]: 4.64 µg/mL; Range of minimum inhibitory concentration (Escherichia coli; Table 6): * (no inhibition at 64 μg/mL); Range of minimum inhibitory concentration (Streptococcus pneumoniae; Table 6): * (no inhibition at 64 μg/mL); Range of minimum inhibitory concentration (Cryptococcus neoformans; Table 6): * (no inhibition at 64 μg/mL); Range of minimum inhibitory concentration (Staphylococcus aureus; Table 6): * (no inhibition at 64 μg/mL); Range of minimum inhibitory concentration ([2]; Table 6): * (no inhibition at 64 μg/mL); Range of minimum inhibitory concentration (Candida albicans; Table 6): * (no inhibition at 64 μg/mL); Range of minimum inhibitory concentration (Neisseria gonorrhoeae; Table 6): 64 µg/mL; IC50 (colon KM 20L2; [6]): 3.4 µg/mL; IC50 (lung NCI-H460; [6]): > 10 µg/mL; inhibition at 30 µM (PKC alpha): ≤ 6%; IC50 (CNS SF-268; [6]): > 10 µg/mL
COc1cc2c3c(cc[n+](C)c3c1OC)N(C)C=C2.[I-] [Compound 5, 1,4-Dimethyl-8,9-dimethoxy-4H-benzo-[de][1,6]naphthyridin-1-ium iodide] | – | 3.9 µg/mL | > 64 µg/mL | 16 to 32 µg/mL | 7.1 µg/mL | 3.5 µg/mL | 4.9 µg/mL | > 64 µg/mL | 3.9 µg/mL | > 64 µg/mL | > 64 µg/mL | > 64 µg/mL | > 64 µg/mL | > 64 µg/mL | > 64 µg/mL | > 64 µg/mL | 6.1 µg/mL | > 10 µg/mL | 0.69 µg/mL | 7.1 µg/mL | IC50 (prostrate DU-145; [7]): 3.5 µg/mL; IC50 (breast MCF-7; [6]): 4.9 µg/mL; IC50 [1, 8]: 3.89 µg/mL; IC50 (colon KM 20L2; [6]): 6.1 µg/mL; IC50 (lung NCI-H460; [6]): > 10 µg/mL; inhibition at 30 µM (PKC alpha): ≤ 6%; IC50 (CNS SF-268; [6]): 0.69 µg/mL
COc1ccc(CN2C=Cc3cc(OC)c(OC)c4c3c2cc[n+]4C)cc1.[I-] [Compound 17, 1-Methyl-4-(4-methoxybenzyl)-8,9-dimethoxy-4H-benzo[de][1,6]-naphthyridin-1-ium iodide] | – | – | > 64 µg/mL | 4 to 8 µg/mL | 7 µg/mL | 7.5 µg/mL | 8 µg/mL | > 64 µg/mL | 3.1 µg/mL | > 64 µg/mL | > 64 µg/mL | > 64 µg/mL | > 64 µg/mL | > 64 µg/mL | > 64 µg/mL | 64 µg/mL | 5.4 µg/mL | 4.6 µg/mL | 5.9 µg/mL | – | –
